From the supplement of paper PMC4862054
Where “and” joins values, the source holds several entries; their conditions need not be identical. Equal entries are not always repeated.

Experiments:
Conditions in all cases: incubation time: 72 h
MDA-MB-231 [1] = assay: normalised response (% of control), CellTiter-Glo; higher = more viable cells (100 = DMSO, 0 = benzethonium chloride kill control)
Method in brief: (§1)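 Each entry is the normalised signal at a single concentration within a series. The series comprised 5 concentrations in 10-fold steps over a compound-specific 10,000-fold range, placed in 384-well plates into which breast cancer cell lines were seeded as 20 µl suspension and incubated 72 h. CellTox Green (485/520 nm) fluorescence and then CellTiter-Glo luminescence were read, with signals normalised per plate to 0.1 % DMSO (100) and a positive kill control (0).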

BT-549 [2] = assay: as above
Method in brief: as §1

HCC1937 = assay: as above
Method in brief: as §1

CAL-85-1 [3] = assay: as above
Method in brief: as §1

MFM-223 [4] = assay: as above
Method in brief: as §1

MDA-MB-436 [5] = assay: as above
Method in brief: as §1

Hs578T = assay: as above
Method in brief: as §1

SK-BR-3 [6] = assay: as above
Method in brief: as §1

MDA-MB-468 [7] = assay: as above
Method in brief: as §1

MDA-MB-453 [8] = assay: as above
Method in brief: as §1

CAL-120 = assay: as above
Method in brief: as §1

HDQ-P1 [9] = assay: as above
Method in brief: as §1

DU-4475 [10] = assay: as above
Method in brief: as §1

HCC1599 = assay: as above
Method in brief: as §1

CAL-148 [11] = assay: as above
Method in brief: as §1

BT-474 [12] = assay: as above
Method in brief: as §1

MCF-10A = assay: as above
Method in brief: as §1

HCC1143 [13] = assay: as above
Method in brief: as §1

CAL-51 [14] = assay: as above
Method in brief: as §1

MDA-MB-231 [15] = assay: normalised viability (% of control), CellTiter-Blue; higher = more viable cells (100 = DMSO, 0 = benzethonium chloride kill control)
Description: (§2)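 DSRT, CellTiter-Blue viability, 72 h incubation. Signal is normalised to DMSO and benzethonium chloride controls. Value is the normalised response at dose 1.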

BT-549 [16] = assay: as above
Description: as §2

CAL-85-1 [17] = assay: as above
Description: as §2

MFM-223 [18] = assay: as above
Description: as §2

MDA-MB-436 [19] = assay: as above
Description: as §2

SK-BR-3 [20] = assay: as above
Description: as §2

MDA-MB-468 [21] = assay: as above
Description: as §2

HDQ-P1 [22] = assay: as above
Description: as §2

DU-4475 [23] = assay: as above
Description: as §2

CAL-148 [24] = assay: as above
Description: as §2

BT-474 [25] = assay: as above
Description: as §2

HCC1143 [26] = assay: as above
Description: as §2

CAL-51 [27] = assay: as above
Description: as §2

CAL-85-1 [28] = assay: normalised viability (% of control), CellTiter-Blue; higher = more viable cells (about 100 = DMSO control)
Description: (§3)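 DSRT, CellTiter-Blue viability, 72 h incubation. Signal is normalised to DMSO and benzethonium chloride controls. Value is the normalised response at dose 9.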

MDA-MB-453 [29] = assay: as above
Description: as §3

HDQ-P1 [30] = assay: as above
Description: as §3

DU-4475 [31] = assay: as above
Description: as §3

CAL-148 [32] = assay: as above
Description: as §3

CAL-51 [33] = assay: as above
Description: as §3

CAL-85-1 [34] = assay: as above; remark: listed apart in the source
Description: (§4)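 DSRT, CellTiter-Blue viability, 72 h incubation. Signal is normalised to DMSO and benzethonium chloride controls. Value is the normalised response at dose 8.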

MDA-MB-453 [35] = assay: as above; remark: listed apart in the source
Description: as §4

HDQ-P1 [36] = assay: as above; remark: listed apart in the source
Description: as §4

DU-4475 [37] = assay: as above; remark: listed apart in the source
Description: as §4

CAL-148 [38] = assay: as above; remark: listed apart in the source
Description: as §4

CAL-51 [39] = assay: as above; remark: listed apart in the source
Description: as §4

CCc1c2c(nc3ccc(OC(=O)N4CCC(N5CCCCC5)CC4)cc13)-c1cc3c(c(=O)n1C2)COC(=O)[C@]3(O)CC [Irinotecan] (1 nM)
normalised response (MDA-MB-231 [1]): 90.3% | normalised response (BT-549 [2]): 109% | normalised response (HCC1937): 97.2% | normalised response (CAL-85-1 [3]): 116% | normalised response (MFM-223 [4]): 94% | normalised response (MDA-MB-436 [5]): 97.9% | normalised response (Hs578T): 95.9% | normalised response (SK-BR-3 [6]): 110% | normalised response (MDA-MB-468 [7]): 107% | normalised response (MDA-MB-453 [8]): 114% | normalised response (CAL-120): 94.2% | normalised response (HDQ-P1 [9]): 97.3% | normalised response (DU-4475 [10]): 104% | normalised response (HCC1599): 105% | normalised response (CAL-148 [11]): 98.3% | normalised response (BT-474 [12]): 98.5% | normalised response (MCF-10A): 96.5% | normalised response (HCC1143 [13]): 93.9% | normalised response (CAL-51 [14]): 81.6% | normalised viability (MDA-MB-231 [15]): 82.3% and 98.2% | normalised viability (BT-549 [16]): 95.7% and 90.7% | normalised viability (CAL-85-1 [17]): 83% and 98.7% | normalised viability (MFM-223 [18]): 93.6% and 104% | normalised viability (MDA-MB-436 [19]): 97.6% and 117% | normalised viability (SK-BR-3 [20]): 84.7% and 99.9% | normalised viability (MDA-MB-468 [21]): 96.8% and 102% | normalised viability (HDQ-P1 [22]): 89% and 101% | normalised viability (DU-4475 [23]): 98.7% and 106% | normalised viability (CAL-148 [24]): 91.5% and 110% | normalised viability (BT-474 [25]): 103% and 98% | normalised viability (HCC1143 [26]): 87.2% and 101% | normalised viability (CAL-51 [27]): 106% and 112%

CO[C@H]1C[C@@H]2CC[C@@H](C)[C@@](O)(O2)C(=O)C(=O)N2CCCC[C@H]2C(=O)O[C@H]([C@H](C)C[C@@H]2CC[C@@H](OP(C)(C)=O)[C@H](OC)C2)CC(=O)[C@H](C)/C=C(\C)[C@@H](O)[C@@H](OC)C(=O)[C@H](C)C[C@H](C)/C=C/C=C/C=C/1C [Ridaforolimus] (1000 nM)
normalised viability (CAL-85-1 [28]): 50.6% | normalised viability (MDA-MB-453 [29]): 21.4% | normalised viability (HDQ-P1 [30]): 81.7% | normalised viability (DU-4475 [31]): 6.1% | normalised viability (CAL-148 [32]): 35.4% | normalised viability (CAL-51 [33]): 31.3%

S=P(N1CC1)(N1CC1)N1CC1 [Thio-TEPA] (100000 nM)
normalised viability (CAL-85-1 [28]): 101% | normalised viability (MDA-MB-453 [29]): 104% | normalised viability (HDQ-P1 [30]): 91.3% | normalised viability (DU-4475 [31]): 102% | normalised viability (CAL-148 [32]): 111% | normalised viability (CAL-51 [33]): 99.7%

COc1cc2/c(=N/c3ccc(Br)cc3F)nc[nH]c2cc1OCC1CCN(C)CC1 [Vandetanib] (10000 nM)
normalised viability (CAL-85-1 [28]): 17.3% | normalised viability (MDA-MB-453 [29]): 17.4% | normalised viability (HDQ-P1 [30]): 8.94% | normalised viability (DU-4475 [31]): 111% | normalised viability (CAL-148 [32]): 59.6% | normalised viability (CAL-51 [33]): 15.3%

COCC[n+]1c2c(n(Cc3cnccn3)c1C)C(=O)c1ccccc1C2=O [YM155] (3000 nM)
normalised viability (CAL-85-1 [34]): 2.51% | normalised viability (MDA-MB-453 [35]): 2.38% | normalised viability (HDQ-P1 [36]): 0.93% | normalised viability (DU-4475 [37]): 0.2% | normalised viability (CAL-148 [38]): 2.73% | normalised viability (CAL-51 [39]): 1.46%
